# Laboratory results taken from patent US20260130933A1, “PHARMACEUTICAL COMPOSITION FOR PREVENTION OR TREATMENT OF NEPHROPATHY AND/OR DIABETES MELLITUS, COMPRISING ENAVOGLIFLOZIN” (DAEWOONG PHARMACEUTICAL CO., LTD., priority 2022, published 2026).
# Assay: Example 2: phase 3 trial, enavogliflozin 0.3 mg vs dapagliflozin 10 mg once a day for 24 weeks added to metformin in patients with type 2 diabetes (same efficacy, exploratory and safety endpoints)
# Type: in vivo, human
# Method: Subjects who met the inclusion/exclusion criteria were administered a placebo of the clinical trial drug under single-blind (subject blinding) conditions during a 2-week run-in period while continuing to receive metformin. […] The randomized subjects were administered two tablets of the clinical trial drug for each administration group once a day, and then visited the institution at weeks 6, 12, 18, and 24 during the 24-week administration period to conduct efficacy and safety evaluations.
# • 1. Change in HbA1c at week 24 after administration of clinical trial drug compared to Visit 2 (randomization)
# • 1. Change in HbA1c at each time point of weeks 6, 12, and 18 after administration of clinical trial drug compared to Visit 2 (randomization) • 2. Change in FPG at each time point of weeks 6, 12, 18, and 24 after administration of clinical trial drug compared to Visit 2 (randomization) • 3. Proportion of subjects achieving HbA1c<7% at each time point of weeks 6, 12, 18, and 24 after administration of clinical trial drug • 4. Proportion of subjects achieving HbA1c<6.5% at each time point of weeks 6, 12, 18, and 24 after administration of clinical trial drug • 5. Proportion of subjects achieving therapeutic response (HbA1c change (HbA1c at Visit 2-HbA1c at each evaluation time point)>0.5% or HbA1c<7% at each evaluation time point compared to Visit 2 (randomization)) at each time point of weeks 6, 12, 18 and 24 after administration of clinical trial drug
# • 1. Change in fasting c-peptide at each time point of weeks 6, 12, 18, and 24 after administration of clinical trial drug compared to Visit 2 (randomization) • 2. Change in body weight at each time point of weeks 6, 12, 18, and 24 after administration of clinical trial drug compared to Visit 2 (randomization) • 3. Change in fasting lipid concentration (total cholesterol, LDL-C, HDL-C, and triglycerides) at each time point of weeks 6, 12, 18, and 24 after administration of clinical trial drug compared to Visit 2 (randomization) • 4. Changes in systolic or diastolic blood pressure at each time point of weeks 6, 12, 18, and 24 after administration of clinical trial drug compared to Visit 2 (randomization) • 5. Changes in β-cell function and insulin resistance measured by HOMA-β and HOMA-IR at each time point of weeks 6, 12, 18, and 24 after administration of clinical trial drug compared to Visit 2 (randomization) • 6. Changes in renal function-related indicators (UACR, UGCR) measured by UACR at each time point of weeks 6, 12, 18, and 24 after administration of clinical trial drug compared to Visit 2 (randomization) • 7. Changes in obesity-related indicators (adiponectin, leptin) at each time point of weeks 6, 12, 18, and 24 after administration of clinical trial drug compared to Visit 2 (randomization)
# [1] = week 6, per-protocol set, enavogliflozin 0.3 mg, dapagliflozin 10 mg
# [2] = week 12, modified per-protocol set 1, enavogliflozin 0.3 mg, dapagliflozin 10 mg
# [3] = week 12, per-protocol set, enavogliflozin 0.3 mg vs dapagliflozin 10 mg
# [4] = week 12, per-protocol set, enavogliflozin 0.3 mg, dapagliflozin 10 mg
structure (smiles),measurement,setting,value
"OC[C@H]1O[C@@H](c2cc(Cc3ccc(C4CC4)cc3)c(Cl)c3c2CCO3)[C@H](O)[C@@H](O)[C@@H]1O [Enavogliflozin, (2S,3R,4R,5S,6R)-2-(7-chloro-6 (4-cyclopropylbenzyl)-2,3-dihydrobenzofuran-4-yl)-6-(hydroxymethyl)tetrahydro-2H-pyran-3,4,5-triol]","Change from baseline in fasting c-peptide, ANCOVA LS mean (SE)",[1],−0.07(0.02) ng/mL
same,"Change from baseline in fasting c-peptide, Mean (SD)",[1],−0.06(0.19) ng/mL
same,"Change from baseline in fasting c-peptide, Median",[1],-0.03 ng/mL
same,"FPG, Mean (SD)",[1],118.44 mg/dL
same,"FPG, Median",[1],115.00 mg/dL
same,"HbA1c, Mean (SD)",[1],7.13%
same,"HbA1c, Median",[1],6.98%
same,"Subjects achieving HbA1c target of <6.5%, (%)",[1],(12.63) %
same,"Subjects achieving therapeutic glycemic response, (%)",[1],(78.95) %
same,"body weight, Mean (SD)",[1],68.61(11.27) kg
same,"body weight, Median",[1],67.30 kg
same,"fasting c-peptide, Mean (SD)",[1],0.66(0.24) ng/mL
same,"fasting c-peptide, Median",[1],0.60 ng/mL
same,"FPG change from baseline, LS mean (SE)",week 12,−29.70(1.96) mg/dL
same,"HOMA-IR change from baseline, LS mean (SE)",week 12,−1.58(0.17)
same,"HOMA-β change from baseline, LS mean (SE)",week 12,5.57(3.08)
same,"HbA1c change from baseline, LS mean (SE)",week 12,−0.83(0.06) % p
same,"LDL-C change from baseline, LS mean (SE)",week 12,1.86(1.68) mg/dL
same,Subjects achieving HbA1c target of <7%,week 12,(68.09) %
same,Subjects achieving HbA1c<6.5%,week 12,15.96%
same,Subjects achieving therapeutic response (HbA1c change >0.5% or HbA1c<7%),week 12,88.30%
same,"UACR change from baseline, LS mean (SE)",week 12,−21.65(7.38) g/kg
same,"UGCR change from baseline, LS mean (SE)",week 12,64.70(2.58) mg/mg
same,"diastolic blood pressure change from baseline, LS mean (SE)",week 12,−4.19(0.79) mmHg
same,"fasting c-peptide change from baseline, LS mean (SE)",week 12,−0.08(0.02) ng/ml
same,"leptin change from baseline, LS mean (SE)",week 12,−2.64(0.49) ng/mL
same,"FPG change from baseline, LS mean difference","week 12, vs dapagliflozin",0.42 mg/dL
same,"HDL-C change from baseline, LS mean difference","week 12, vs dapagliflozin",0.06 mg/dL
same,"HOMA-IR change from baseline, LS mean difference","week 12, vs dapagliflozin",0.02
same,"HOMA-β change from baseline, LS mean difference","week 12, vs dapagliflozin",−3.17
same,"HbA1c change from baseline, LS mean difference","week 12, vs dapagliflozin",−0.03 % p
same,"LDL-C change from baseline, LS mean difference","week 12, vs dapagliflozin",1.30 mg/dL
same,Odds ratio for achieving HbA1c<6.5%,"week 12, vs dapagliflozin",0.51
same,Odds ratio for achieving HbA1c<7%,"week 12, vs dapagliflozin",1.21
same,Odds ratio for achieving therapeutic response,"week 12, vs dapagliflozin",2.04
same,"UACR change from baseline, LS mean difference","week 12, vs dapagliflozin",−18.27
same,"UGCR change from baseline, LS mean difference","week 12, vs dapagliflozin",19.57 mg/mg
same,"body weight change from baseline, LS mean difference","week 12, vs dapagliflozin",-0.19 kg
same,"diastolic blood pressure change from baseline, LS mean difference","week 12, vs dapagliflozin",0.16 mmHg
same,"fasting c-peptide change from baseline, LS mean difference","week 12, vs dapagliflozin",0.01 ng/mL
same,"leptin change from baseline, LS mean difference","week 12, vs dapagliflozin",0.07 ng/mL
same,"systolic blood pressure change from baseline, LS mean difference","week 12, vs dapagliflozin",0.26 mmHg
same,"total cholesterol change from baseline, LS mean difference","week 12, vs dapagliflozin",3.01 mg/dL
same,"triglyceride change from baseline, LS mean difference","week 12, vs dapagliflozin",2.57 mg/dL
same,Subjects achieving HbA1c target of <7%,"week 12, listed as enavogliflozin",68.09%
same,"Change from baseline in total cholesterol, ANCOVA LS mean difference","week 12, modified per-protocol set 1, enavogliflozin 0.3 mg vs dapagliflozin 10 mg",3.01 mg/dL
same,"Change from baseline in Total cholesterol, ANCOVA LS mean (SE)",[2],7.26(1.98) mg/dL
same,"Change from baseline in Total cholesterol, Mean (SD)",[2],5.74(18.70) mg/dL
same,"Change from baseline in total cholesterol, Median",[2],6.00 mg/dL
same,"fasting Total cholesterol, Mean (SD)",[2],157.39(31.50) mg/dL
same,"fasting Total cholesterol, Median",[2],150.00 mg/dL
same,"Change from baseline in FPG, ANCOVA LS mean difference",[3],0.42 mg/dL
same,"Change from baseline in HbA1c, ANCOVA LS mean difference",[3],−0.03 % p
same,"Change from baseline in body weight, ANCOVA LS mean difference",[3],-0.19 kg
same,"Change from baseline in fasting c-peptide, ANCOVA LS mean difference",[3],0.01 ng/mL
same,"Odds ratio for achieving HbA1c target of <6.5%, logistic regression model",[3],0.51
same,"Odds ratio for achieving therapeutic glycemic response, logistic regression model",[3],2.04
same,"Change from baseline in FPG, ANCOVA LS mean (SE)",[4],-29.70 mg/dL
same,"Change from baseline in FPG, Mean (SD)",[4],-27.74 mg/dL
same,"Change from baseline in FPG, Median",[4],-26.00 mg/dL
same,"Change from baseline in HbA1c, ANCOVA LS mean (SE)",[4],−0.83 % p
same,"Change from baseline in HbA1c, Mean (SD)",[4],−0.77 % p
same,"Change from baseline in HbA1c, Median",[4],−0.65 % p
same,"Change from baseline in body weight, ANCOVA LS mean (SE)",[4],−2.81(0.23) kg
same,"Change from baseline in body weight, Mean (SD)",[4],−2.78(2.48) kg
same,"Change from baseline in body weight, Median",[4],-2.75 kg
same,"Change from baseline in fasting c-peptide, ANCOVA LS mean (SE)",[4],−0.08(0.02) ng/mL
same,"Change from baseline in fasting c-peptide, Mean (SD)",[4],−0.07(0.21) ng/mL
same,"Change from baseline in fasting c-peptide, Median",[4],-0.07 ng/mL
same,"FPG, Mean (SD)",[4],117.00 mg/dL
